Source: patent publication US8815834B2, “Use of dendrimers to stimulate cell growth” (Centre National de la Recherche Scientifique, priority 2004, dated 2014)

Tested on: human NK cells
Assay: Culture of PBMC with dendrimer and IL2: amplification and phenotype of NK cells
Details: in particular at a concentration of 20 μM; FIG. 4B
Description: Peripheral blood mononuclear cells (PBMC) obtained from a healthy adult human donor by centrifugation over a density gradient (Ficoll-Hypaque, Amersham Pharmacia Biotech, Upsalla, SWEDEN) are cultured in sterile cell culture flasks at a concentration of 1.5 million cells per ml of culture medium of the RPMI 1640 type, 25 mM Hepes/Ultraglutamine 1 (Cambrex Bio Science, Verviers, BELGIUM) supplemented with: • i) 1 mM sodium pyruvate (Invitrogen Corporation, Paisley, UNITED KINGDOM) • ii) 100 μg/ml of streptomycin and 100 U/ml of penicillin (Cambrex Bio Science, Verviers, BELGIUM); • iii) 10% by volume of foetal calf serum (Invitrogen Corporation, Paisley, UNITED KINGDOM) decomplemented for 30 minutes at 56° C. (FCS); • iv) 20 μM of GC1 dendrimer solubilized at a concentration of 2 mM in sterile non-pyrogenic PBS; • v) 200 U/ml of human recombinant IL2 (Sanofi-Synthelabo, Paris, FRANCE) is added to the culture medium thus produced. […]
The PBMCs obtained from a healthy adult human donor are cultured for 15 days with GC1 then counted by total counting of the living cells (Ntot). […]
The NK cells obtained starting with PBMCs from healthy donors cultured under the conditions described previously are counted, at the start of the experiment then at the end of 3.5 weeks of culture. […]

O=P(O)(O)CN(CCc1ccc(O)cc1)CP(=O)(O)O [phenol-azabisphosphonic monomer derived from tyramine]
Immunostimulant properties on the in vitro amplification of human NK cells: inactive
